Patent US20250257034A1, “INDOLE DERIVATIVES AS SEROTONERGIC AGENTS USEFUL FOR THE TREATMENT OF DISORDERS RELATED THERETO” (priority 2023, published 2025)

Legend:
[1] = Human liver microsomes stability; assay type: in vitro ADME; settings: human liver microsomes; for half-life at 2 μM / microsomal CLint at 2 μM: 2 μM compound, 0.5 mg/mL; for microsomal CLint at 2 μM: read-out: CLint (μL/min/mg protein); for CLint scaled at 2 μM: read-out: Scaled-up CLint
Procedure: (§1) The objective of this study was to estimate in vitro metabolic stability of exemplary compounds of Formula (I) or a pharmaceutically acceptable salt, solvate, and/or prodrug thereof in pooled human, male rat, and male mouse liver microsomes. The concentrations of compounds in reaction systems were evaluated by LC-MS/MS for estimating the stability in pooled human, male rat, and male mouse liver microsomes. The in vitro intrinsic clearances of test compounds were determined as well.
(§2) A master solution in the “Incubation Plate” containing phosphate buffer, ultra-pure H2O, MgCl2 solution and liver microsomes was made according to Table 33. The mixture was pre-warmed at 37° C. water bath for 5 minutes.
(§3) 40 μL of 10 mM nicotinamide adenine dinucleotide phosphate (NADPH) solution was added to each well. The final concentration of NADPH was 1 mM. The negative control samples were prepared by replacing NADPH with 40 μL of ultra-pure H2O. Samples were prepared in duplicate. Negative controls were prepared in singlet.
(§4) The reaction was started with the addition of 4 μL of 200 μM exemplary test compounds of the disclosure or control compounds to each master solution to get the final concentration of 2 μM. This study was performed in duplicate.
(§5) Aliquots of 50 μL were taken from the reaction solution at 0, 15, 30, 45, and 60 minutes. The reaction solutions were stopped by the addition of 4 volumes of cold methanol with IS (100 nM alprazolam, 200 nM imipramine, 200 nM labet alol and 2 μM ketoprofen). Samples were centrifuged at 3,220 g for 40 minutes. Aliquot of 90 μL of the supernatant was mixed with 90 μL of ultra-pure H2O and then was used for LC-MS/MS analysis.
(§6) LC/MS analysis was performed for all samples from this study using a Shimadzu liquid chromatograph separation system equipped with degasser DGU-20A5R; solvent delivery unit LC-30AD; system controller SIL-30AC; column oven CTO-30A; CTC Analytics HTC PAL System. Mass spectrometric analysis was performed using a Triple Quad™ 5500 instrument.
(§7) All calculations were carried out using Microsoft Excel. Peak area ratios of test compound to internal standard (listed in the below table) were determined from extracted ion chromatograms.
(§8) All calculations were carried out using Microsoft Excel. Peak areas were determined from extracted ion chromatograms. The slope value, k, was determined by linear regression of the natural logarithm of the remaining percentage of the parent drug vs. incubation time curve.
(§9) The in vitro half-life (in vitro t1/2) was determined from the slope value:
(§10) Conversion of the in vitro t1/2(min) into the in vitro intrinsic clearance (in vitro CLint, in μL/min/mg proteins) was done using the following equation (mean of duplicate determinations): […]
(§11) A master solution in the “Incubation Plate” containing phosphate buffer, ultra-pure H2O, MgCl2 solution and liver microsomes was made according to Table 63. The mixture was pre-warmed at 37° C. water bath for 5 minutes.
(§12) 40 μL of 10 mM NADPH solution was added to each well. The final concentration of NADPH was 1 mM. The negative control samples were prepared by replacing NADPH with 40 μL of ultra-pure H2O. Samples were prepared in duplicate. Negative controls were prepared in singlet.
(§13) Conversion of the in vitro t1/2(min) into the in vitro intrinsic clearance (in vitro C Lt, in μL/min/mg proteins) was done using the following equation (mean of duplicate determinations): […]

[2] = Mouse liver microsomes stability; assay type: in vitro ADME; settings: mouse liver microsomes; for microsomal CLint at 2 μM / half-life at 2 μM / CLint scaled at 2 μM: male, pooled liver microsomes; for microsomal CLint at 2 μM: mouse, read-out: CLint (μL/min/mg protein); for microsomal CLint at 2 μM / half-life at 2 μM: 2 μM compound, 0.5 mg/mL; for CLint scaled at 2 μM: read-out: Scaled-up CLint
Procedure: as §1, §2, §3, §4, §5, §6, §7, §8, §9, §10, §11, §12, §13

SMILES | Predicted hepatic CL [1] [mL/min/kg] | half-life at 2 μM [1] [min] | microsomal CLint at 2 μM [1] [µL/min/mg] | Remaining Percentage (%) ([1]; With Cofactors, 0 min) | Remaining Percentage (%) ([1]; With Cofactors, 30 min) | Remaining Percentage (%) ([1]; With Cofactors, 60 min) | Remaining Percentage (%) ([1]; Without Cofactors, 0 min) | Remaining Percentage (%) ([1]; Without Cofactors, 30 min) | Remaining Percentage (%) ([1]; Without Cofactors, 60 min) | CLint scaled at 2 μM [1] [mL/min/kg] | microsomal CLint at 2 μM [2] [µL/min/mg] | half-life at 2 μM [2] [min] | CLint scaled at 2 μM [2] [mL/min/kg] | Predicted hepatic CL [2] [mL/min/kg] | Remaining Percentage (%) ([2]; With Cofactors, 0 min) | Remaining Percentage (%) ([2]; With Cofactors, 30 min) | Remaining Percentage (%) ([2]; With Cofactors, 60 min) | Remaining Percentage (%) ([2]; Without Cofactors, 0 min) | Remaining Percentage (%) ([2]; Without Cofactors, 30 min) | Remaining Percentage (%) ([2]; Without Cofactors, 60 min)
COc1ccc2[nH]cc(CCN3CC[C@@H](OC)C3)c2c1 [(R) I-66, (R)-5-methoxy-3-(2-(3-methoxypyrrolidin-1-yl)ethyl)-1H-indole] | 4.37 | 314 | 4.42 | 100.00 | 98.13 | 87.59 | 100.00 | 100.00 | 98.15 | 5.54 | 14.1 | 98.5 | 61.5 | 36.55 | 100.00 | 72.95 | 65.58 | 100.00 | 104.20 | 100.00
CN(CCOC(F)F)CCc1c[nH]c2ccccc12 [Compound I-130, N-(2-(1H-Indol-3-yl)ethyl)-2-(difluoromethoxy)-N-methylethan-1-amine] | 18.58 | 9.6 | 144 | 100.00 | 11.46 | 0.75 | 100.00 | 99.47 | 94.15 | 181 | 173 | 8.03 | 755 | 80.41 | 100.00 | 7.52 | 0.87 | 100.00 | 95.65 | 104.89
COc1ccc2[nH]cc(CCN3CC[C@@H](OC(F)F)C3)c2c1 [(R) I-67, (R)-3-(2-(3-(Difluoromethoxy)pyrrolidin-1-yl)ethyl)-5-methoxy-1H-indole] | 15.34 | 29.3 | 47.3 | 100.00 | 47.22 | 24.23 | 100.00 | 79.21 | 71.91 | 59.3 | 57.4 | 24.1 | 251 | 66.25 | 100.00 | 43.11 | 17.88 | 100.00 | 103.14 | 109.43
